According to ChEMBL document CHEMBL4813973, “Discovery of novel N-benzylbenzamide derivatives as tubulin polymerization inhibitors with potent antitumor activities” (Eur J Med Chem, 2021):
Converted amounts (≈) assume the structure as drawn.

What was measured:
[1] = system: A-431; assay: Antiproliferative activity against human A-431 cells assessed as reduction in cell viability incubated for 72 hrs by MTT assay; format: functional, cell-based; details: A-431, 72 h
[2] = n-Octanol/water partition coefficient, logD of the compound incubated for 24 hrs at pH 7.4 by HPLC analysis; format: physicochemical
[3] = system: HepG2; assay: cells; details: Homo sapiens, HepG2, 72 h
[4] = system: Bel-7402; assay: Antiproliferative activity against ADR-resistant human Bel-7402 cells assessed as reduction in cell viability incubated for 72 hrs by MTT assay; format: functional, cell-based; details: Homo sapiens, Bel-7402, 72 h; read-out: IC50
[5] = Resistant index, ratio of IC50 for taxol-resistant human HCT-8 cells to IC50 for human HCT-8 cells; format: functional
[6] = Resistant index, ratio of IC50 for VCR resistant human K562 cells to IC50 for human K562 cells; format: functional
[7] = system: H22; assay: Antitumor activity against […] xenografted in ICR mouse assessed as reduction of tumor weight at 20 mg/kg/day, iv for 21 days; format: functional; details: 504 h, time 21 day
[8] = Aqueous solubility of the compound in phosphate buffer at pH 7.4 by HPLC-UV analysis; format: physicochemical
[9] = system: H22; assay: Antiproliferative activity against mouse H22 cells assessed as reduction in cell viability incubated for 72 hrs by MTT assay; format: functional, cell-based; details: H22, 72 h
[10] = Aqueous solubility of the compound in aqueous HCl at pH 2 by HPLC-UV analysis; format: physicochemical
[11] = Resistant index, ratio of IC50 for ADR-resistant human Bel-7402 cells to IC50 for human Bel-7402 cells; format: functional
[12] = system: HCT-8; assay: Antiproliferative activity against taxol-resistant human HCT-8 cells assessed as reduction in cell viability incubated for 72 hrs by MTT assay; format: functional, cell-based; details: Homo sapiens, HCT-8, 72 h; read-out: IC50
[13] = species: Sus scrofa; assay: Inhibition of [3H]colchicine binding to biotinylated pig brain tubulin at 1 uM incubated for 2 hrs in presence of GTP by competitive scintillation proximity assay; format: tissue-based
[14] = Inhibition of pig brain tubulin polymerisation incubated for 30 mins and measured every 2 mins for 60 mins by spectrophotometric method; format: tissue-based, Sus scrofa
[15] = species: Sus scrofa; assay: Inhibition of [3H]colchicine binding to biotinylated pig brain tubulin at 5 uM incubated for 2 hrs in presence of GTP by competitive scintillation proximity assay; format: tissue-based
[16] = system: K562; assay: cells; details: Homo sapiens, K562, 72 h
Description: Antiproliferative activity against human K562 cells assessed as reduction in cell viability incubated for 72 hrs by MTT assay

[17] = system: MDA-MB-231; assay: Antiproliferative activity against human MDA-MB-231 cells assessed as reduction in cell viability incubated for 72 hrs by MTT assay; format: functional, cell-based; details: MDA-MB-231, 72 h
[18] = system: HCT-8; assay: Antiproliferative activity against human HCT-8 cells assessed as reduction in cell viability incubated for 72 hrs by MTT assay; format: functional, cell-based; details: Homo sapiens, HCT-8, 72 h; read-out: IC50
[19] = system: L02; assay: Cytotoxicity against human L02 cells assessed as reduction in cell viability incubated for 72 hrs by MTT assay; format: cell-based; details: L02, 72 h

SMILES: COc1ccc(CNC(=O)c2cc(-c3ccco3)ccc2N2CCOCC2)cc1O
- IC50 [1]: 215 nM

SMILES: COc1ccc(/C=C\c2cc(OC)c(OC)c(OC)c2)cc1O [COMBRETASTATIN A4]
- logD at 24 h [2]: 2.68
- IC50 [3]: 10 nM
- IC50 [4]: 58 nM
- Ratio IC50 [5]: 7.9
- Ratio IC50 [6]: 8.1
- inhibition in vivo at 20 mg/kg/day [7]: 54.9%
- solubility [8]: 1 µg/mL (≈ 3.16 µM)
- IC50 [9]: 15 nM
- solubility [10]: < 1 µg/mL
- Ratio IC50 [11]: 5.3
- IC50 [12]: 87 nM
- inhibition [13]: 80.2%
- IC50 [14]: 2640 nM
- inhibition [15]: 90.3%

SMILES: COc1ccc(CNC(=O)c2cc([N+](=O)[O-])ccc2N2CCOCC2)cc1
- IC50 [1]: 127 nM

SMILES: CCOc1ccc(CNC(=O)c2cc([N+](=O)[O-])ccc2N2CCOCC2)cc1
- IC50 [1]: 143 nM

SMILES: COc1ccc(CNC(=O)c2cc(NC(=O)c3ccco3)ccc2N2CCOCC2)cc1O
- IC50 [1]: 478 nM

SMILES: COc1ccc(CNC(=O)c2cc([N+](=O)[O-])ccc2N2CCSCC2)cc1O
- IC50 [3]: 58 nM
- IC50 [16]: 49 nM
- IC50 [17]: 62 nM
- IC50 [9]: 55 nM
- IC50 [18]: 60 nM
- IC50 [19]: 113 nM
- IC50 [1]: 60 nM

SMILES: COc1ccc(CNC(=O)c2cc(F)ccc2N2CCCCC2)cc1O
- logD at 24 h [2]: 2.97
- IC50 [3]: 26 nM
- IC50 [16]: 11 nM
- IC50 [17]: 86 nM
- solubility [8]: < 1 µg/mL
- IC50 [9]: 32 nM
- solubility [10]: 1110 µg/mL (≈ 3090 µM)
- IC50 [18]: 29 nM
- IC50 [19]: 88 nM
- IC50 [1]: 25 nM

SMILES: COc1ccc(CNC(=O)c2ccccc2N2CCOCC2)cc1O
- IC50 [3]: 48 nM
- IC50 [16]: 30 nM
- IC50 [17]: 55 nM
- IC50 [9]: 49 nM
- IC50 [18]: 62 nM
- IC50 [19]: 105 nM
- IC50 [1]: 20 nM

SMILES: COc1ccc(CNC(=O)c2cc([N+](=O)[O-])ccc2N2CCOCC2)cc1OC
- IC50 [1]: > 1000 nM

SMILES: O=C(NCc1ccncc1)c1cc([N+](=O)[O-])ccc1N1CCOCC1
- IC50 [1]: > 1000 nM

SMILES: COc1ccc(CNC(=O)c2cc(NC(C)=O)ccc2N2CCOCC2)cc1O
- IC50 [1]: 220 nM

SMILES: CSc1ccc(CNC(=O)c2cc([N+](=O)[O-])ccc2N2CCOCC2)cc1
- IC50 [1]: 221 nM

SMILES: COc1ccc(/C=C\c2cc(OC)c(OC)c(OC)c2)cc1OP(=O)(O)O [FOSBRETABULIN]
- inhibition in vivo at 20 mg/kg/day [7]: 62.7%

SMILES: COc1ccc(CNC(=O)c2cc(NCc3ccco3)ccc2N2CCOCC2)cc1O
- IC50 [1]: 315 nM

SMILES: COc1ccc(CNC(=O)c2cc([N+](=O)[O-])ccc2N2CCOCC2)cc1O
- IC50 [3]: 61 nM
- IC50 [16]: 59 nM
- IC50 [17]: 57 nM
- IC50 [9]: 50 nM
- IC50 [18]: 60 nM
- IC50 [19]: 116 nM
- IC50 [1]: 45 nM

SMILES: COc1ccc(CNC(=O)c2cc(C(F)(F)F)ccc2N2CCCCC2)cc1O
- IC50 [1]: 97 nM

SMILES: COc1cc(CNC(=O)c2cc([N+](=O)[O-])ccc2N2CCOCC2)cc(OC)c1OC
- IC50 [1]: > 1000 nM

SMILES: COc1ccc(CNC(=O)c2cc([N+](=O)[O-])ccc2N2CCCC2)cc1O
- IC50 [1]: 372 nM

SMILES: O=C(NCc1ccc(OC(F)(F)F)cc1)c1cc([N+](=O)[O-])ccc1N1CCOCC1
- IC50 [1]: > 1000 nM

SMILES: COc1ccc(CNC(=O)c2cc([N+](=O)[O-])ccc2N(C)C)cc1O
- IC50 [1]: > 1000 nM

SMILES: COc1ccc(CNC(=O)c2cc([N+](=O)[O-])ccc2N2CCNCC2)cc1O
- IC50 [1]: > 1000 nM

SMILES: COc1ccc(CNC(=O)c2cc(NCc3ccncc3)ccc2N2CCOCC2)cc1O
- IC50 [1]: 1080 nM

SMILES: O=C(NCc1ccc(Cl)cc1)c1cc([N+](=O)[O-])ccc1N1CCOCC1
- IC50 [1]: > 1000 nM

SMILES: COc1ccc(CNC(=O)c2cc(NC(=O)c3ccncc3)ccc2N2CCOCC2)cc1O
- IC50 [1]: 962 nM

SMILES: COc1ccc(C(=O)Nc2ccc(N3CCOCC3)c(C(=O)NCc3ccc(OC)c(O)c3)c2)cc1
- IC50 [1]: > 1000 nM

SMILES: COc1ccc(CNC(=O)c2cc(Br)ccc2N2CCOCC2)cc1O
- IC50 [3]: 31 nM
- IC50 [16]: 24 nM
- IC50 [17]: 29 nM
- IC50 [9]: 24 nM
- IC50 [18]: 30 nM
- IC50 [19]: 108 nM
- IC50 [1]: 30 nM

SMILES: COc1ccc(CNC(=O)c2cc(O)ccc2N2CCOCC2)cc1O
- IC50 [1]: 121 nM

SMILES: COc1ccc(CNC(=O)c2cc([N+](=O)[O-])ccc2N2CCCCC2)cc1O
- IC50 [3]: 12 nM
- IC50 [16]: 19 nM
- IC50 [17]: 29 nM
- IC50 [9]: 25 nM
- IC50 [18]: 11 nM
- IC50 [19]: 120 nM
- IC50 [1]: 12 nM

SMILES: O=C(NCc1ccc(O)cc1)c1cc([N+](=O)[O-])ccc1N1CCOCC1
- IC50 [1]: > 1000 nM

SMILES: COc1ccc(CNC(=O)c2cc(Br)ccc2N2CCCCC2)cc1O
- IC50 [1]: 92 nM

SMILES: O=C(NCc1ccc(C(F)(F)F)cc1)c1cc([N+](=O)[O-])ccc1N1CCOCC1
- IC50 [1]: > 1000 nM

SMILES: COCCNc1ccc([N+](=O)[O-])cc1C(=O)NCc1ccc(OC)c(O)c1
- IC50 [1]: > 1000 nM

SMILES: COc1ccc(CNC(=O)c2cc([N+](=O)[O-])ccc2N2CCS(=O)(=O)CC2)cc1O
- IC50 [1]: > 1000 nM

SMILES: COc1ccc(-c2ccc(N3CCOCC3)c(C(=O)NCc3ccc(OC)c(O)c3)c2)cc1
- IC50 [1]: 154 nM

SMILES: COc1ccc(CNC(=O)c2ccncc2N2CCOCC2)cc1O
- IC50 [1]: 118 nM

SMILES: COc1ccc(CNc2ccc(N3CCOCC3)c(C(=O)NCc3ccc(OC)c(O)c3)c2)cc1
- IC50 [1]: 306 nM

SMILES: CN(C)c1ccc(CNC(=O)c2cc([N+](=O)[O-])ccc2N2CCOCC2)cc1
- IC50 [1]: 145 nM

SMILES: COc1ccc(CNC(=O)c2cnccc2N2CCOCC2)cc1O
- IC50 [1]: 977 nM

SMILES: COc1ccc(CNC(=O)c2cc([N+](=O)[O-])ccc2N2CCOCC2)cn1
- IC50 [1]: > 1000 nM

SMILES: COc1ccc(CNC(=O)c2ccc([N+](=O)[O-])cc2N2CCOCC2)cc1O
- IC50 [1]: 224 nM

SMILES: COc1ccc(CNC(=O)c2ccccc2N2CCCCC2)cc1O
- IC50 [3]: 31 nM
- IC50 [16]: 30 nM
- IC50 [17]: 29 nM
- IC50 [9]: 29 nM
- IC50 [18]: 29 nM
- IC50 [19]: 97 nM
- IC50 [1]: 30 nM

SMILES: COc1ccc(N2CCCCC2)c(C(=O)NCc2ccc(OC)c(O)c2)c1
- IC50 [1]: 57 nM

SMILES: COc1ccc(CNC(=O)c2cc(C(F)(F)F)ccc2N2CCOCC2)cc1O
- IC50 [3]: 62 nM
- IC50 [16]: 40 nM
- IC50 [17]: 57 nM
- IC50 [9]: 55 nM
- IC50 [18]: 56 nM
- IC50 [19]: 103 nM
- IC50 [1]: 37 nM

SMILES: O=C(OCc1ccc2[nH]ccc2c1)c1cc([N+](=O)[O-])ccc1N1CCOCC1
- IC50 [1]: > 1000 nM

SMILES: COc1ccc(CNC(=O)c2cc(N(C)C)ccc2N2CCOCC2)cc1O
- IC50 [1]: 105 nM

SMILES: COc1ccc(CNC(=O)c2cc([N+](=O)[O-])ccc2N2CCOCC2)cc1F
- IC50 [1]: 93 nM

SMILES: COc1ccc(CNC(=O)c2cc(Cl)ccc2N2CCOCC2)cc1O
- IC50 [3]: 29 nM
- IC50 [16]: 32 nM
- IC50 [17]: 30 nM
- IC50 [9]: 31 nM
- IC50 [18]: 25 nM
- IC50 [19]: 95 nM
- IC50 [1]: 25 nM

SMILES: COc1ccc(C(C)NC(=O)c2cc([N+](=O)[O-])ccc2N2CCOCC2)cc1 (stereo not drawn)
- IC50 [1]: 241 nM

SMILES: CCN(CC)c1ccc([N+](=O)[O-])cc1C(=O)NCc1ccc(OC)c(O)c1
- IC50 [1]: 51 nM

SMILES: COc1ccc(N2CCOCC2)c(C(=O)NCc2ccc(OC)c(O)c2)c1
- IC50 [3]: 29 nM
- IC50 [16]: 61 nM
- IC50 [17]: 29 nM
- IC50 [9]: 32 nM
- IC50 [18]: 27 nM
- IC50 [19]: 52 nM
- IC50 [1]: 28 nM

SMILES: COc1ccc(CNC(=O)c2cc(-c3ccncc3)ccc2N2CCOCC2)cc1O
- IC50 [1]: 388 nM

SMILES: O=C(OCc1cccc2[nH]ccc12)c1cc([N+](=O)[O-])ccc1N1CCOCC1
- IC50 [1]: > 1000 nM
